US9833497B2, “Human originated EGF domain proteins and use of the same” (CHENGDU SOURCEBIO LIMITED-LIABILITY COMPANY, priority 2013, dated 2017)

What was measured:
Format in all cases: cell-based
E. coli DH5α = experiment: Antibacterial activity: MIC and growth curve against E. coli DH5α in 96-well plate; settings: minimal inhibitory concentration against E. coli DH5α; 96-well plate, 5×10^5 CFU/mL, 37° C., judged after 8 h
In short: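 Log-phase bacteria (OD600 ~0.5) resuspended in LB at 5×10^5 CFU/mL, exposed to recombinant protein at 50, 25, 12.5 μg/mL final in triplicate, 37 °C shaking at 175 rpm. OD600 read every 30 min; MIC is lowest concentration showing no growth.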

E. coli BL21 = experiment: MIC against Gram-negative bacteria: E. coli BL21
In short: (§1)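 Growth inhibition by human EGF domain proteins was scored in LB liquid culture seeded at 5×10^5 CFU/mL. Protein was applied as a two-fold dilution series in triplicate, with shaking incubation at 37° C; MIC is the lowest concentration giving no growth.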

Pseudomonas aeruginosa = experiment: MIC against Gram-negative bacteria: Pseudomonas aeruginosa
In short: as §1

Klebsiella pneumonia = experiment: MIC against Gram-negative bacteria: Klebsiella pneumonia
In short: as §1

Enterobacter cloacae = experiment: MIC against Gram-negative bacteria: Enterobacter cloacae
In short: as §1

Aeromonas hydrophila = experiment: MIC against Gram-negative bacteria: Aeromonas hydrophila
In short: as §1

Citrobacter diversus = experiment: MIC against Gram-negative bacteria: Citrobacter diversus
In short: as §1

Moraxella catarrhalis = experiment: MIC against Gram-negative bacteria: Moraxella catarrhalis
In short: as §1

Proteus mirabilis = experiment: MIC against Gram-negative bacteria: Proteus mirabilis
In short: as §1

Proteus vulgaris = experiment: MIC against Gram-negative bacteria: Proteus vulgaris
In short: as §1

Serratia marcescens = experiment: MIC against Gram-negative bacteria: Serratia marcescens
In short: as §1

[1] = 96-well plate, 5×10^5 CFU/mL, 37° C., 10 h
[2] = E. coli BL21, 10 h cultivation at 37° C., 5×10^5 CFU/mL
[3] = P. aeruginosa, 10 h cultivation at 37° C., 5×10^5 CFU/mL
[4] = K. pneumonia, 10 h cultivation at 37° C., 5×10^5 CFU/mL
[5] = E. cloacae, 10 h cultivation at 37° C., 5×10^5 CFU/mL
[6] = A. hydrophila, 10 h cultivation at 37° C., 5×10^5 CFU/mL
[7] = C. diversus, 10 h cultivation at 37° C., 5×10^5 CFU/mL
[8] = M. catarrhalis, 10 h cultivation at 37° C., 5×10^5 CFU/mL
[9] = P. mirabilis, 10 h cultivation at 37° C., 5×10^5 CFU/mL
[10] = P. vulgaris, 10 h cultivation at 37° C., 5×10^5 CFU/mL
[11] = S. marcescens, 10 h cultivation at 37° C., 5×10^5 CFU/mL

## PRT736 (DVNECAEEGYCSQGCTNSEGAFQCWCETGYELRPDRRSCK; listed as Homo sapiens)
E. coli DH5α
  MIC: 12.5 µg/mL
E. coli BL21; [1]
  MIC E. coli BL21: 25 µg/mL
Pseudomonas aeruginosa; [1]
  MIC P. aeruginosa: 50 µg/mL
Klebsiella pneumonia; [1]
  MIC K. pneumonia: 50 µg/mL
Enterobacter cloacae; [1]
  MIC E. cloacae: 50 µg/mL
Aeromonas hydrophila; [1]
  MIC A. hydrophila: 25 µg/mL
Citrobacter diversus; [1]
  MIC C. diversus: 12.5 µg/mL
Moraxella catarrhalis; [1]
  MIC M. catarrhalis: 25 µg/mL
Proteus mirabilis; [1]
  MIC P. mirabilis: 12.5 µg/mL
Proteus vulgaris; [1]
  MIC P. vulgaris: 25 µg/mL
Serratia marcescens; [1]
  MIC S. marcescens: 50 µg/mL

## PRT605 (CLCPDDPSSNQYFAHSCYQNLWSSDVICNCLQGYTGTQCGECSTGFYGNPRISGAPCQP; listed as Homo sapiens)
E. coli DH5α
  MIC: 12.5 µg/mL
E. coli BL21; [1]
  MIC E. coli BL21: 25 µg/mL
Pseudomonas aeruginosa; [1]
  MIC P. aeruginosa: 50 µg/mL
Klebsiella pneumonia; [1]
  MIC K. pneumonia: 25 µg/mL
Enterobacter cloacae; [1]
  MIC E. cloacae: 12.5 µg/mL
Aeromonas hydrophila; [1]
  MIC A. hydrophila: 25 µg/mL
Citrobacter diversus; [1]
  MIC C. diversus: 50 µg/mL
Moraxella catarrhalis; [1]
  MIC M. catarrhalis: 25 µg/mL
Proteus mirabilis; [1]
  MIC P. mirabilis: 12.5 µg/mL
Proteus vulgaris; [1]
  MIC P. vulgaris: 25 µg/mL
Serratia marcescens; [1]
  MIC S. marcescens: 50 µg/mL

## PRT444 (GISECSSQPCQNGGTCVEGVNQYRCICPPGRTGNRCQ; listed as Homo sapiens)
E. coli DH5α
  MIC: 25 µg/mL
E. coli BL21; [1]
  MIC against E. coli BL21: 12.5 µg/mL
Pseudomonas aeruginosa; [1]
  MIC against P. aeruginosa: 25 µg/mL
Klebsiella pneumonia; [1]
  MIC against K. pneumonia: 50 µg/mL
Enterobacter cloacae; [1]
  MIC against E. cloacae: 12.5 µg/mL
Aeromonas hydrophila; [1]
  MIC against A. hydrophila: 50 µg/mL
Citrobacter diversus; [1]
  MIC against C. diversus: 12.5 µg/mL
Moraxella catarrhalis; [1]
  MIC against M. catarrhalis: 50 µg/mL
Proteus mirabilis; [1]
  MIC against P. mirabilis: 12.5 µg/mL
Proteus vulgaris; [1]
  MIC against P. vulgaris: 50 µg/mL
Serratia marcescens; [1]
  MIC against S. marcescens: 12.5 µg/mL

## PRT302 (DIDECVEEPEICALGTCSNTEGSFKCLCPEGFSLSSSGRRCQ; listed as Homo sapiens)
E. coli DH5α
  MIC: 12.5 µg/mL
E. coli BL21; [2]
  MIC: 25 µg/mL
Pseudomonas aeruginosa; [3]
  MIC: 12.5 µg/mL
Klebsiella pneumonia; [4]
  MIC: 25 µg/mL
Enterobacter cloacae; [5]
  MIC: 12.5 µg/mL
Aeromonas hydrophila; [6]
  MIC: 12.5 µg/mL
Citrobacter diversus; [7]
  MIC: 12.5 µg/mL
Moraxella catarrhalis; [8]
  MIC: 12.5 µg/mL
Proteus mirabilis; [9]
  MIC: 12.5 µg/mL
Proteus vulgaris; [10]
  MIC: 50 µg/mL
Serratia marcescens; [11]
  MIC: 12.5 µg/mL

## PRT905 (DVNECDSQPCLHGGTCQDGCGSYRCTCPQGYTGPNCQ; listed as Homo sapiens)
E. coli DH5α
  MIC: 25 µg/mL
E. coli BL21; E. coli BL21, 10 h cultivation at 37° C.
  MIC: 50 µg/mL
Pseudomonas aeruginosa; P. aeruginosa, 10 h cultivation at 37° C.
  MIC: 12.5 µg/mL
Klebsiella pneumonia; K. pneumonia, 10 h cultivation at 37° C.
  MIC: 25 µg/mL
Enterobacter cloacae; E. cloacae, 10 h cultivation at 37° C.
  MIC: 50 µg/mL
Aeromonas hydrophila; A. hydrophila, 10 h cultivation at 37° C.
  MIC: 12.5 µg/mL
Citrobacter diversus; C. diversus, 10 h cultivation at 37° C.
  MIC: 50 µg/mL
Moraxella catarrhalis; M. catarrhalis, 10 h cultivation at 37° C.
  MIC: 25 µg/mL
Proteus mirabilis; P. mirabilis, 10 h cultivation at 37° C.
  MIC: 12.5 µg/mL
Proteus vulgaris; P. vulgaris, 10 h cultivation at 37° C.
  MIC: 50 µg/mL
Serratia marcescens; S. marcescens, 10 h cultivation at 37° C.
  MIC: 12.5 µg/mL

## PRT817 (FGPGCEQRCQCQHGAACDHVSGACTCPAGWRGTFCE; listed as Homo sapiens)
E. coli DH5α
  MIC: 50 µg/mL
E. coli BL21; [2]
  MIC (μg/mL) E. coli BL21: 12.5 µg/mL
Pseudomonas aeruginosa; [3]
  MIC (μg/mL) P. aeruginosa: 50 µg/mL
Klebsiella pneumonia; [4]
  MIC (μg/mL) K. pneumonia: 25 µg/mL
Enterobacter cloacae; [5]
  MIC (μg/mL) E. cloacae: 12.5 µg/mL
Aeromonas hydrophila; [6]
  MIC (μg/mL) A. hydrophila: 25 µg/mL
Citrobacter diversus; [7]
  MIC (μg/mL) C. diversus: 50 µg/mL
Moraxella catarrhalis; [8]
  MIC (μg/mL) M. catarrhalis: 25 µg/mL
Proteus mirabilis; [9]
  MIC (μg/mL) P. mirabilis: 12.5 µg/mL
Proteus vulgaris; [10]
  MIC (μg/mL) P. vulgaris: 50 µg/mL
Serratia marcescens; [11]
  MIC (μg/mL) S. marcescens: 12.5 µg/mL
